Measurements from the supplement of paper PMC10883282.

Key:
Experiment in all cases: relative viability vs DMSO control (72 h) (fraction); higher = more viable cells
A204 = test system: A204
How it was run: (§1)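 Plates held 72 h at 37 °C and 5% CO2 contained sarcoma cell lines seeded in 384-well format to reach 80–90% confluence, plus 2.5 µl of serially diluted compound added after 24 h. Source plate concentrations ran from 10 mM to 0.0002 mM, with 0.1% DMSO as vehicle and a 5 µM positive control. Percent growth from ATPLite readings, averaged over up to triplicate wells, gave relative viability. Values were rescaled with 1 as full and 0 as none.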

G401 = test system: G401
How it was run: as §1

HS729 = test system: HS729
How it was run: as §1

KHOS-240S = test system: KHOS-240S
How it was run: as §1

MES-SA = test system: MES-SA
How it was run: as §1

SK-ES-1 = test system: SK-ES-1
How it was run: as §1

Cn1cc(C2=C(c3cn(C4CCN(Cc5ccccn5)CC4)c4ccccc34)C(=O)NC2=O)c2ccccc21 [Enzastaurin]
relative viability
Conditions | A204 | G401 | HS729 | KHOS-240S | MES-SA | SK-ES-1
0.00017 µM | 1.07 | 1.08 | 1.06 | 1.06 | 1.01 | 1.09
0.00051 µM | 1.13 | 1.1 | 1.09 | 1.1 | 0.997 | 1.06
0.00152 µM | 1.13 | 1.07 | 1.07 | 1.08 | 0.994 | 1.11
0.00457 µM | 1.12 | 1.04 | 1.07 | 1.09 | 0.99 | 1.08
0.01372 µM | 1.11 | 1.05 | 1.05 | 1.1 | 0.959 | 1.11
0.04115 µM | 1.07 | 1.05 | 1.05 | 1.09 | 1.003 | 1.08
0.1235 µM | 1.07 | 1.09 | 1.01 | 1.07 | 0.942 | 1.08
0.3704 µM | 1.1 | 1.06 | 1.02 | 1.08 | 0.97 | 1.04
1.111 µM | 1.09 | 1.13 | 1.06 | 1.08 | 0.952 | 1.11
3.333 µM | 1.08 | 1.21 | 1.13 | 1.01 | 0.964 | 1.1
10 µM | 0.906 | 1.31 | 1.15 | 0.732 | 0.659 | 0.914
